Data taken from patent US20240368115A1, “REGULATOR CONTAINING TRICYCLIC DERIVATIVE, PREPARATION METHOD THEREFOR AND APPLICATION THEREOF” (SHUJING BIOPHARMA CO., LTD, priority 2021, published 2024).

What was measured:
Type in all cases: cell-based
[1] = target: 5-HT2A receptor (Homo sapiens, UniProt P28223); test: Calcium flux test for 5-HT2A receptor; conditions: CHO cell strain stably expressing 5-HT2A receptor; for IC50: calcium flux, antagonism of serotonin; for 5-HT2A Max Inh %: positive control ketanserin 10^−7 M
5-HT2A receptor, sequence (P28223 whole entry): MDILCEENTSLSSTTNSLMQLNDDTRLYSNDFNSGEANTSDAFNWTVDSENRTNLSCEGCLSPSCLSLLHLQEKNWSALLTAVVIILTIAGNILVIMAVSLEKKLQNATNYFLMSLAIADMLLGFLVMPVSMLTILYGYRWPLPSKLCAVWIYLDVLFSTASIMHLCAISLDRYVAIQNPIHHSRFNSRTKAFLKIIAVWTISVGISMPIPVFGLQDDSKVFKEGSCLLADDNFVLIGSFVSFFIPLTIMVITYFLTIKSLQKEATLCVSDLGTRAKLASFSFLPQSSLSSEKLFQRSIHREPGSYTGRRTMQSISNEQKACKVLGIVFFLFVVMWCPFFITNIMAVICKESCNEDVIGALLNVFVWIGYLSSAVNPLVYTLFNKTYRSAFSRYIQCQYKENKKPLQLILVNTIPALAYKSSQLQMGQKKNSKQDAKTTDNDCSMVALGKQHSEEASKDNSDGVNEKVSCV
Procedure: • Fluo-4 calcium flux detection kit was purchased from Invitrogen; a CHO cell strain stably expressing 5-HT2A receptor was purchased from PerkinElmer; serotonin was purchased from Sigma; ketanserin was purchased from Targetmol; polylysine-coated 384-well plates and 384-well compound plates were purchased from Greiner Bio-One. Molecular Device FLIPR, Agilent Bravo liquid workstation, and Countstar BioTech cell counter.
• (1) The cryopreserved cells were rapidly thawed in a water bath at 37° C., and the cells were resuspended in a plating medium. The cryopreservation solution was removed by centrifugation at 200×g. The pellet was resuspended in an appropriate amount of plating medium, 20 μL of cell suspension was counted using a cell counter, and the cell density was diluted to 1×10^6 cells/mL. • (2) 20 μL of cell suspension was added to a polylysine-coated 384-well plate (2×10^4 cells/well). • (3) The cell plate was incubated in a 37° C./5% CO2 incubator for 16-20 h.
• (1) The cell plate was taken out from the incubator and centrifuged at 100×g to remove the medium. 20 μL of experimental buffer was added, and then 20 μL of 2× fluorescent probe solution was added. […] The cell plate and agonist positive compound plate were placed into the FLIPR instrument, the detection program was run, 10 μL of the diluted compound was transferred from the agonist compound plate to the cell plate, and the fluorescence signal was read. […] The cell plate and test compound plate were placed in the FLIPR instrument, the detection program was run, and 10 μL of the diluted compound was transferred from the test compound plate to the cell plate. […] The test compound plate was then taken out, and the agonist positive compound plate with 6×EC50 concentration was placed.
Inhibition rate (Inhibition %)=(negative control reading value−compound reading value)/(negative control reading value−positive control reading value)×100%

[2] = target: T1, D2S receptor (Homo sapiens, UniProt P14416); test: D2S receptor cAMP agonist test; conditions: HEK293 cell strain stably expressing D2S receptor; for EC50: cAMP, forskolin 5×10^−7 M; for D2S Max Act %: positive control dopamine 1×10^−7 M
T1 construct: expressed in transfected cells
T1 sequence (P14416 1-414 isoform P14416-2): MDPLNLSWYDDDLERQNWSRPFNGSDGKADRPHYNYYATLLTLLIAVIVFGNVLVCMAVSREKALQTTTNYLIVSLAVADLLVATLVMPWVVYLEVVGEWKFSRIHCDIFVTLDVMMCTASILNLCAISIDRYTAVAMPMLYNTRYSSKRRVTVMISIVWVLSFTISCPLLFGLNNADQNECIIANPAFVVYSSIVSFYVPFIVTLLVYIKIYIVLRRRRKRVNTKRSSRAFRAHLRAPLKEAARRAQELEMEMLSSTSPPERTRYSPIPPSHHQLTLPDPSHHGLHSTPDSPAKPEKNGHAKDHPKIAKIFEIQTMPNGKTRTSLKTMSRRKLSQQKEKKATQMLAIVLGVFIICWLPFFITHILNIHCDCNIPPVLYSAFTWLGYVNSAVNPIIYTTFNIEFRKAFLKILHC
From the text: (§1) cAMP detection kit was purchased from Cisbio; an HEK293 cell strain stably expressing D2S receptor was constructed by Shanghai Shujing Biopharma Co., Ltd.; dopamine, forskolin, and IBMX were purchased from Sigma; ProxiPlate-384 well plates were purchased from PerkinElmer; HBSS was purchased from Thermo Fisher Scientific.
(§2) • (1) The cultured cells were digested with trypsin, and the cell suspension was washed with HBSS buffer after the digestion was terminated. The medium was removed by centrifugation at 200×g. The pellet was resuspended in an appropriate amount of experimental buffer, and 20 μL of cell suspension was counted using a cell counter and diluted to 0.6×10^6 cells/mL. • (2) 5 μL of cell suspension was added to a ProxiPlate-384 well plate (3×10^3 cells/well). • (3) Test compounds were serially diluted in an experimental buffer, and 5 μL of the mixed solution was transferred to the reaction plate with Bravo.

[3] = target: T2, D2L receptor (Homo sapiens, UniProt P14416); test: D2L receptor cAMP agonist test; conditions: HEK293 cell strain stably expressing D2L receptor; for EC50: cAMP, forskolin 0.5 μM; for D2L Max Act %: positive control dopamine 1 μM
T2 construct: expressed in transfected cells
T2 sequence (P14416 whole entry): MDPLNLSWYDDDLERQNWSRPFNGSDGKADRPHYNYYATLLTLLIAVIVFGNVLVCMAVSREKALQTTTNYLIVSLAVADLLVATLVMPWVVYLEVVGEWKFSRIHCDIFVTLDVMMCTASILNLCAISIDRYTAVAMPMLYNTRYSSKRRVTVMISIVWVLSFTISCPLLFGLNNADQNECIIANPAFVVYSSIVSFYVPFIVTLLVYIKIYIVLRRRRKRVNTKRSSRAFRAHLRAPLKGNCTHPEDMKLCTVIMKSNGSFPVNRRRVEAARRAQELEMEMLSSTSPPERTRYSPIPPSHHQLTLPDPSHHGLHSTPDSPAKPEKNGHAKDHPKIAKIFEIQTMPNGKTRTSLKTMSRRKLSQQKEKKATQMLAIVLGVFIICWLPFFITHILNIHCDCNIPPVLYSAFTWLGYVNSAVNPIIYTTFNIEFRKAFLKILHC
Procedure: as §1, with “• cAMP” for “cAMP”, “D2L” for “D2S”
• (1) The cryopreserved cells were thawed in a water bath at 37° C., the cell suspension was resuspended in HBSS buffer, and the mixed solution was centrifuged at 750 rpm for 5 min to remove the medium. The pellet was resuspended in an appropriate amount of experimental buffer, and an appropriate amount of cell suspension was diluted to 0.4×10^6 cells/mL. • (2) 5 μL of cell suspension was added to a ProxiPlate-384 well plate (2×10^3 cells/well), and the plate was centrifuged at 1000 rpm for 1 min. • (3) Test compounds were serially diluted in an experimental buffer, and 5 μL of the mixed solution was transferred to the reaction plate with Bravo.

[4] = target: T3, 5-HT1A receptor (Homo sapiens, UniProt P08908); test: 5-HT1A receptor cAMP agonist test; conditions: HEK293 cell strain stably expressing 5-HT1A receptor; for EC50: cAMP, forskolin 2.5×10^−7 M; for 5-HT1A Max Act %: positive control serotonin 10^−6 M
T3 construct: expressed in transfected cells
T3 sequence (P08908 1-422): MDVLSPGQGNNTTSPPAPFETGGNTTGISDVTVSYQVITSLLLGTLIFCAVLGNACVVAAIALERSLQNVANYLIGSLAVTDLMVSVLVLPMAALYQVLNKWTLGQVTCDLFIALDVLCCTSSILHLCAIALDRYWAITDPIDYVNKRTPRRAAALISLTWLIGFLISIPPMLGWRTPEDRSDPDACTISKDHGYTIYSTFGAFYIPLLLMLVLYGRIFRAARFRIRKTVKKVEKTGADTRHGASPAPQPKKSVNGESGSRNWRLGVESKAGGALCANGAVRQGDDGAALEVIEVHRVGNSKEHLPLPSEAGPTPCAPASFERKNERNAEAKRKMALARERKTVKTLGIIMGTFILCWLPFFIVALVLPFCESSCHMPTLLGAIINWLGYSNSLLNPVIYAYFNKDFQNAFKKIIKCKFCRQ
From the text: as §1, with “• cAMP” for “cAMP”, “5-HT1A” for “D2S”, “serotonin,” for “dopamine,”
as §2, with “0.4×10^6” for “0.6×10^6”, “(2×10^3” for “(3×10^3”

Compound | IC50 [1] | 5-HT2A Max Inh % [1] | EC50 [2] | D2S Max Act % [2] | EC50 [3] | D2L Max Act % [3] | EC50 [4] | 5-HT1A Max Act % [4]
O=C1Nc2cc(OCCCCN3CCN(c4cccc5c4CC(F)(F)C5=O)CC3)ccc2C2CC12 (stereo not drawn) [Example 47, 5-(4-(4-(2,2-difluoro-1-one-2,3-dihydro-1H-inden-4-yl)piperazin-1-yl)butoxy)-1,1a,3,7b-tetrahydro-2H-cyclopropa[c]quinolin-2-one] | 268 nM | 96.0% | 0.97 nM | 102.9% | 0.84 nM | 35.9% | 207 nM | 75.8%
O=C1Nc2cc(OCCCCN3CCN(c4cccc5ccsc45)CC3)ccc2C2CC12 (stereo not drawn) [Example 48, 5-(4-(4-(Benzo[b]thiophen-7-yl)piperazin-1-yl)butoxy)-1,1a,3,7b-tetrahydro-2H-cyclopropa[c]quinolin-2-one] | 2410 nM | 100.5% | 0.89 nM | 114.8% | 0.49 nM | 49.0% | 366 nM | 55.2%
O=C1Nc2cc(OCCCCN3CCN(c4cccc5c4OCC5)CC3)ccc2C2CC12 (single isomer, unassigned) [Example 44-P1] | 192 nM | 99.6% | 0.98 nM | 96.8% | 0.26 nM | 45.9% | 12.7 nM | 49.5%
O=C1Nc2cc(OCCCCN3CCN(c4cccc5c4CCC5)CC3)ccc2C2CC12 (single isomer, unassigned) [Example 43-P1] | 853 nM | 100.7% | 1.3 nM | 123.1% | 0.9 nM | 37.9% | 194 nM | 68.3%
O=C1Nc2cc(OCCCCN3CCN(c4cccc(Cl)c4O)CC3)ccc2C2CC12 (stereo not drawn) [Example 39, 5-(4-(4-(3-Chloro-2-hydroxyphenyl)piperazin-1-yl)butoxy)-1,1a,3,7b-tetrahydro-2H-cyclopropa[c]quinolin-2-one] | 2930 nM | 94.2% | – | – | – | – | – | –
O=C1Nc2cc(OCCCCN3CCN(c4cccc5[nH]ccc45)CC3)ccc2C2CC12 (stereo not drawn) [Example 52, 5-(4-(4-(1H-Indol-4-yl)piperazin-1-yl)butoxy)-1,1a,3,7b-tetrahydro-2H-cyclopropa[c]quinolin-2-one] | 1590 nM | 99.9% | – | – | 0.31 nM | 65.3% | – | –
O=C1Nc2cc(OCCCCN3CCN(c4cccc(O)c4Cl)CC3)ccc2C2CC12 (stereo not drawn) [Example 38, 5-(4-(4-(2-Chloro-3-hydroxyphenyl)piperazin-1-yl)butoxy)-1,1a,3,7b-tetrahydro-2H-cyclopropa[c]quinolin-2-one] | 4850 nM | 98.1% | 0.88 nM | 92.4% | 1.39 nM | 32.3% | – | –
O=C1Nc2cc(OCCCCN3CCN(c4cccc5c4OCC5)CC3)ccc2C2CC12 (single isomer, unassigned) [Example 44-P2] | 290 nM | 99.7% | 0.92 nM | 89.1% | 0.22 nM | 53.9% | 7.05 nM | 48.0%
O=C1Nc2cc(OCCCCN3CCN(c4cccc5c4CCC5)CC3)ccc2C2CC12 (stereo not drawn) [Example 43, 5-(4-(4-(2,3-Dihydro-1H-inden-4-yl)piperazin-1-yl)butoxy)-1,1a,3,7b-tetrahydro-2H-cyclopropa[c]quinolin-2-one] | 971 nM | 100.3% | 0.92 nM | 134.9% | 0.3 nM | 42.8% | 158 nM | 67.7%
O=C1Nc2cc(OCCCCN3CCN(c4cccc5c4CCC5)CC3)ccc2C2CC12 (single isomer, unassigned) [Example 43-P2] | 1130 nM | 96.6% | 0.92 nM | 125.3% | 0.25 nM | 35.7% | 92.4 nM | 60.6%
O=C1Nc2cc(OCCCCN3CCN(c4ccc(Cl)s4)CC3)ccc2C2CC12 (stereo not drawn) [Example 51] | 2530 nM | 99.8% | 0.76 nM | 111.1% | 1.53 nM | 82.6% | 73.4 nM | 79.4%
O=C1Nc2cc(OCCCCN3CCN(c4cccc5c4OCC5)CC3)ccc2C2CC12 (stereo not drawn) [Example 44, 5-(4-(4-(2,3-Dihydrobenzofuran-7-yl)piperazin-1-yl)butoxy)-1,1a,3,7b-tetrahydro-2H-cyclopropa[c]quinolin-2-one] | 260 nM | 99.7% | 0.93 nM | 91.0% | 0.37 nM | 44.7% | 11.2 nM | 58.9%
